Values quoted from earlier work in PMC4228152 (BMC Pulmonary Medicine, 2014).
pIC50: −log10 of the molar value. Where two headings read alike, the source gives them in different places.

How the values were obtained:
[1] = tested on: allergen induced asthmatic response
[2] = administered orally
monocytes = tested on: monocytes; parameters: method as in PMID 11865966; settings: subjects after 4 weeks treatment
[3] = inhaled inhibitor, read-out: IC50

Row | pIC50 (PDE4; [3]) | mean Cmax [2] | pIC50 (PDE4B) | pIC50 (PDE4A) | pIC50 (PDE4; average of three isoforms, read-out: IC50 average for PDE4-A, -B and -D) | pIC50 (PDE4D) | SMILES | fall in LAR ([1]; inhaled) | reduction in LAR ([1]; inhaled) | inhibition of LPS-induced TNFα release in monocytes ex vivo (monocytes) | reduction in LAR AUC ([1]; oral) | inhibition of the maximal fall in the EAR ([1]; orally administered) | inhibition of the maximal fall in the LAR ([1]; orally administered)
1 | 10.59 | – | – | – | – | – | CS(=O)(=O)Nc1ccc(C(=O)O[C@@H](Cc2c(Cl)c[n+]([O-])cc2Cl)c2ccc(OC(F)F)c(OCC3CC3)c2)cc1OCC1CC1 [CHF6001] | 30% | – | – | – | – | –
2 | 11.49 | – | – | – | – | – | COc1cccc(Nc2c(C(N)=O)cnc3c(C)cc(S(=O)(=O)c4cccc(C(=O)N(C)C)c4)cc23)c1 [GSK256066] | – | 34% | – | – | – | –
3 | – | 2,000 pg/ml | […] | […] | 9.30 | […] | O=C(Nc1c(Cl)cncc1Cl)c1ccc(OC(F)F)c(OCC2CC2)c1 [roflumilast] | – | – | 1.3 fold | 43% | 14-28% | 16-43%
